Measured values: patent US7105296B2, “Genes encoding Baeyer-Villiger monooxygenases” (E. I. du Pont de Nemours and Company, priority 2001, dated 2006)

Experiments:
Assay in all cases: chnB monooxygenase activity by NADPH oxidation at 340 nm
Assay type in all cases: biochemical
[1] = system: Rhodococcus sp. phi1 chnB monooxygenase; conditions: purified over-expressed enzyme; 1.25 mM substrate; pH 7.5; ND = No Activity Detected
Source text: (§1) Following amplification, the chnB gene fragments were cloned into pTrcHis-TOPO TA vectors with either an N-terminal tail or C-terminal tail, as provided by the vector sequence (N-terminal tail for Brevibacterium sp. HCU, Rhodococcus sp. phi1, Rhodococcus sp. phi2, and Arthrobacter sp. BP2 monooxygenases; C-terminal tail for Acinetobacter sp. SE19 and Acidovorax sp. CHX monooxygenases). These vectors were transformed into E. coli, with transformants grown in Luria-Bertani broth supplemented with ampicillin (100 ug/ml) and riboflavin (0.1 ug/ml) at 30° C. until the absorbance at 600 nm (A600) reached 0.5. When the A600 was reached, the temperature was shifted to 16° C.
(§2) The encoded monooxygenase sequences were expressed upon addition of IPTG to the culture media, 30 min after the temperature shift to 16° C. The cultures were grown further overnight (14 hrs) and harvested by centrifugation in a cold centrifuge. The cells were treated with lysozyme (100 mg/ml) for 30 min on ice and sonicated. Following sonication, cell extracts were centrifuged and the supernatant was equilibrated with Ni-NTA resin (Qiagen, Valencia, Calif.) for 1 hr at 4° C. Protein bound resin was washed successively with increasing concentrations of imidazole buffer until the protein of interest was released from the resin. The purified protein was concentrated and the buffer exchanged to remove the imidazole. The protein concentration was adjusted to 1 ug/ml.
(§3) Compounds were selected on the basis of previous observations by van der Werf (J. Biochem. 347:693–701 (2000)) and Miyamoto et al. (Biochimica et Biophysica Acta 1251: 115–124 (1995)) and by searches for the ketone substructure.
(§4) All compounds were obtained from Sigma-Aldrich with only two exceptions. Levoglucosenone was obtained from Toronto Research Chemicals, Inc. and dimethyl-2-piperidone was prepared according to U.S. Pat. No. 6,077,955. For enzyme assays all compounds were dissolved to a concentration of 0.1 M in methanol, with the exceptions of norcamphor (dissolved in ethyl acetate), cyclododecanone, cycltridecanone and cyclopentadecanone (dissolved in propanol), and levoglucosenone (dissolved with acetone).
(§5) The monooxygenase activity of each over-expressed enzyme was assayed spectrophotometrically at 340 nm by monitoring the oxidation of NADPH. Assays were performed in individual quartz cuvettes, with a pathlength of 1 cm. […] An Ultrospec 4000 (Pharmacia Biotech, Cambridge, England) was used to read the absorbance of the samples over a two to ten minute time period and the SWIFT (Pharmacia Biotech) program was used to calculate the slope of the reduction in absorbance over time. For the Brevibacterium sp. […] Monooxygenase activity of each over-expressed enzyme is shown in Table 5, with respect to each ketone substrate. The specific activity values listed are given in umol/min/mg. The notation “ND” refers to “No Activity Detected”.

[2] = target: T1, Acinetobacter sp. SE19 chnB monooxygenase (Acinetobacter sp., UniProt Q9F7E4); conditions: purified over-expressed enzyme; 1.25 mM substrate; pH 7.5; ND = No Activity Detected
T1 construct: expression in E. coli of isolated full length BVMO genes from Brevibacterium sp; HCU, Acinetobacter SE19; C-terminal tail provided by the pTrcHis-TOPO vector (C); made in house; host or cells: E. coli
Source text: as §1, §2, §3, §4, §5

[3] = system: Acidovorax sp. CHX chnB monooxygenase; conditions: purified over-expressed enzyme; 1.25 mM substrate; pH 7.5; ND = No Activity Detected
Source text: as §1, §2, §3, §4, §5

[4] = system: Rhodococcus sp. phi2 chnB monooxygenase; conditions: purified over-expressed enzyme; 1.25 mM substrate; pH 7.5; ND = No Activity Detected
Source text: as §1, §2, §3, §4, §5

[5] = system: Arthrobacter sp. BP2 chnB monooxygenase; conditions: purified over-expressed enzyme; 1.25 mM substrate; pH 7.5; ND = No Activity Detected
Source text: as §1, §2, §3, §4, §5

[6] = system: Brevibacterium sp. HCU chnB1 monooxygenase; conditions: purified over-expressed enzyme; 1.25 mM substrate; pH 7.5; ND = No Activity Detected
Source text: as §1, §2, §3, §4, §5

[7] = system: Brevibacterium sp. HCU chnB2 monooxygenase; conditions: purified over-expressed enzyme; 1.25 mM substrate; pH 7.5; rates multiplied by a factor of 3.25 to adjust for decrease in activity due to storage; ND = No Activity Detected
Source text: as §1, §2, §3, §4, §5

Row | SMILES | Specific Activity of Monooxygenase Enzymes Against Various Ketone Substrates, sp. phi1 chnB [1] | Specific Activity of Monooxygenase Enzymes Against Various Ketone Substrates, sp. CHX chnB [3] | also measured
1 | O=C1CCCCC1=O [1,2-cyclohexanedione] | 0.083 µmol/min/mg | 0.096 µmol/min/mg | Specific Activity of Monooxygenase Enzymes Against Various Ketone Substrates, sp. SE19 chnB [2]: 0.077 µmol/min/mg
2 | O=C1CCCC(=O)C1 [1,3-cyclohexanedione] | – | 0.032 µmol/min/mg | –
3 | O=C1CCCCC1c1ccccc1 (centres unmarked) [2-phenyl-cyclohexanone] | – | – | Specific Activity of Monooxygenase Enzymes Against Various Ketone Substrates, sp. phi2 chnB [4]: 0.730 µmol/min/mg
4 | CCCCCCCCCCCC(C)=O [2-tridecanone] | 0.160 µmol/min/mg | 0.096 µmol/min/mg | –
5 | O=C1CCCCCCCCC1 [Cyclodecanone] | 0.077 µmol/min/mg | 0.160 µmol/min/mg | Specific Activity of Monooxygenase Enzymes Against Various Ketone Substrates, sp. SE19 chnB [2]: 0.320 µmol/min/mg
6 | O=C1CCCCCCCCCCC1 [Cyclododecanone] | – | 0.051 µmol/min/mg | –
7 | O=C1CCCCCCC1 [Cyclooctanone] | – | 0.410 µmol/min/mg | –
8 | O=C1CCCCCCCCCC1 [Cycloundecanone] | – | 0.058 µmol/min/mg | Specific Activity of Monooxygenase Enzymes Against Various Ketone Substrates, sp. BP2 chnB [5]: 0.064 µmol/min/mg; Specific Activity of Monooxygenase Enzymes Against Various Ketone Substrates, sp. phi2 chnB [4]: 0.051 µmol/min/mg; Specific Activity of Monooxygenase Enzymes Against Various Ketone Substrates, sp. SE19 chnB [2]: 0.064 µmol/min/mg
9 | O=C1CC2CC[C@H]1C2 [Norcamphor] | – | – | Specific Activity of Monooxygenase Enzymes Against Various Ketone Substrates, sp. HCU chnB1 [6]: 0.410 µmol/min/mg
10 | CCCCCCC(=O)CCCCCC [dihexyl ketone] | 0.160 µmol/min/mg | – | Specific Activity of Monooxygenase Enzymes Against Various Ketone Substrates, sp. HCU chnB2 [7]: 0.270 µmol/min/mg
11 | C[S+](C)[O-] [dimethyl sulfoxide] | – | – | Specific Activity of Monooxygenase Enzymes Against Various Ketone Substrates, sp. HCU chnB1 [6]: 0.230 µmol/min/mg
